Legend:
[1] = Redox potentials by cyclic voltammetry and differential pulse voltammetry; format: physicochemical; conditions: redox potential versus ferrocene/ferrocenium (FcH/FcH+); acetonitrile, 23 °C
A2780 cells = assay: Viability of A2780 cells; format: cell-based; conditions: read-out: IC50 A2780 cells; human ovarian cancer cells, 48 h, MTT
[2] = N-octanol/water partition coefficient; format: physicochemical; conditions: RP-TLC, MOPS pH 7.4/acetonitrile
BL‐2 cells = assay: Viability of BL-2 cells; format: cell-based; conditions: read-out: IC50 BL‐2 cells; human Burkitt's lymphoma cells, 48 h, MTT

- E1/2 [1]: 0 mV
- IC50 (A2780 cells): > 50 µM
- LogP [2]: 3.40
SMILES: [Fe+2].c1cc[cH-]c1.c1cc[cH-]c1 [FcH, ferrocene]
- IC50 (BL‐2 cells): > 50 µM
